According to patent US10183014B2, “Ocular formulations for drug-delivery and protection of the anterior segment of the eye” (PanOptica, Inc., priority 2014, dated 2019):
Read-outs that look alike come from different tables or passages of the source.

Experiments:
FLT4 (VEGFR-3) = FLT4 (VEGFR-3) (Homo sapiens, UniProt P35916); assay: In vitro inhibition of tyrosine kinases; assay type: biochemical; settings: read-out: Mean % Inhibition at 1 μM Compound-I; 1 μM (568.9 ng/mL)
EPHA-1 = EPHA-1 (Homo sapiens, UniProt P21709); assay: In vitro inhibition of tyrosine kinases; assay type: biochemical; settings: read-out: Mean % Inhibition at 1 μM Compound-I; 1 μM (568.9 ng/mL)
SNF1LK2 = SNF1LK2 (Homo sapiens, UniProt Q9H0K1); assay: In vitro inhibition of tyrosine kinases; assay type: biochemical; settings: read-out: Mean % Inhibition at 1 μM Compound-I; 1 μM (568.9 ng/mL)
PTK6 (Brk) = PTK6 (Brk) (Homo sapiens, UniProt Q13882); assay: In vitro inhibition of tyrosine kinases; assay type: biochemical; settings: read-out: Mean % Inhibition at 1 μM Compound-I; 1 μM (568.9 ng/mL)
[1] = Ocular pharmacokinetics of formulations, Example 20-5; assay type: in vivo, Dutch Belted rabbits
Experimental: The study design (Table 19-1) consisted of forty-seven (47) Dutch Belted rabbits, each receiving a 30 μL bilateral topical ocular dose. Various suspension formulations of the present application were evaluated and compared against a cyclodextrin-based eye drops solution (Control Group 1, Table 19-1). Formula II or Compound-I was used in the test suspensions as well as the Eye Drops solution.
Ocular sampling occurred one hour following the first daily dose on Day 5 for all groups. Whole blood samples using K2EDTA as an anticoagulant were collected from all animals on Day 5, 1 hour post dose. The whole blood was placed on ice until samples were spun in a centrifuge to separate the plasma. Aqueous humor, conjunctiva, cornea, central retina, peripheral retina, central choroid, and peripheral choroid samples were collected following necropsy. Samples were then frozen at −70° C. or lower. For all Groups 1-15, plasma, central retina, central choroid, and cornea samples were assayed. For Group 5 only, samples were analyzed for Vitamin K3.
An analytical method for the analysis of Vitamin K3 was determined in plasma, central retina, central choroid, and cornea samples from Group 5 animals. A calibration curve prepared in control vitreous humor was used to determine the concentration of Vitamin K3. Internal standard (IS) responses were inconsistent for the central choroid and plasma samples. Thus, positive plasma results were likely due to the reduced IS response.

EPHA-1, sequence (P21709 26-976, species assumed): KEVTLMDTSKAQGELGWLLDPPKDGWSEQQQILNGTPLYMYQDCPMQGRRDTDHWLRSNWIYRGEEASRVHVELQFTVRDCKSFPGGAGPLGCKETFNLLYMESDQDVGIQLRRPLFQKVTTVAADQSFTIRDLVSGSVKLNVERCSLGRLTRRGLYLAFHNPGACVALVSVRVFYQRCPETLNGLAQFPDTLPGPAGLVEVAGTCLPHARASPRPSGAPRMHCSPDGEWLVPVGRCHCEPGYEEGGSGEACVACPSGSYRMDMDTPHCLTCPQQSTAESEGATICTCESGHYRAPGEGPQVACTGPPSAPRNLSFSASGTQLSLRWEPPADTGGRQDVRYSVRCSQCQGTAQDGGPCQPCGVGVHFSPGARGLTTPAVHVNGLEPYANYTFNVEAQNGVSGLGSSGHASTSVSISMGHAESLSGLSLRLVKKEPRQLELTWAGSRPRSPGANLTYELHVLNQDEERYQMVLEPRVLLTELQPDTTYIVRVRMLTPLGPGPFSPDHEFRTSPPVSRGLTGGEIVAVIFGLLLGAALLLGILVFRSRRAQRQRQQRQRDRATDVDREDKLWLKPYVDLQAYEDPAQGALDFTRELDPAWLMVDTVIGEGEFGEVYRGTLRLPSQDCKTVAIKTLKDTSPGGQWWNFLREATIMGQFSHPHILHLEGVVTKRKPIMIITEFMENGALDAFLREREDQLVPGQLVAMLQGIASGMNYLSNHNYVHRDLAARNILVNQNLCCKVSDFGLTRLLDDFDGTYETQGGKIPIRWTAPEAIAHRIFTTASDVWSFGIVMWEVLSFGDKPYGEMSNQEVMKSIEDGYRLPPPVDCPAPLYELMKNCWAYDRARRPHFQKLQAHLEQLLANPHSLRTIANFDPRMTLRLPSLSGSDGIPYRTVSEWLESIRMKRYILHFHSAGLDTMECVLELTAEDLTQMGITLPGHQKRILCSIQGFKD
SNF1LK2, sequence (Q9H0K1 whole entry, species assumed): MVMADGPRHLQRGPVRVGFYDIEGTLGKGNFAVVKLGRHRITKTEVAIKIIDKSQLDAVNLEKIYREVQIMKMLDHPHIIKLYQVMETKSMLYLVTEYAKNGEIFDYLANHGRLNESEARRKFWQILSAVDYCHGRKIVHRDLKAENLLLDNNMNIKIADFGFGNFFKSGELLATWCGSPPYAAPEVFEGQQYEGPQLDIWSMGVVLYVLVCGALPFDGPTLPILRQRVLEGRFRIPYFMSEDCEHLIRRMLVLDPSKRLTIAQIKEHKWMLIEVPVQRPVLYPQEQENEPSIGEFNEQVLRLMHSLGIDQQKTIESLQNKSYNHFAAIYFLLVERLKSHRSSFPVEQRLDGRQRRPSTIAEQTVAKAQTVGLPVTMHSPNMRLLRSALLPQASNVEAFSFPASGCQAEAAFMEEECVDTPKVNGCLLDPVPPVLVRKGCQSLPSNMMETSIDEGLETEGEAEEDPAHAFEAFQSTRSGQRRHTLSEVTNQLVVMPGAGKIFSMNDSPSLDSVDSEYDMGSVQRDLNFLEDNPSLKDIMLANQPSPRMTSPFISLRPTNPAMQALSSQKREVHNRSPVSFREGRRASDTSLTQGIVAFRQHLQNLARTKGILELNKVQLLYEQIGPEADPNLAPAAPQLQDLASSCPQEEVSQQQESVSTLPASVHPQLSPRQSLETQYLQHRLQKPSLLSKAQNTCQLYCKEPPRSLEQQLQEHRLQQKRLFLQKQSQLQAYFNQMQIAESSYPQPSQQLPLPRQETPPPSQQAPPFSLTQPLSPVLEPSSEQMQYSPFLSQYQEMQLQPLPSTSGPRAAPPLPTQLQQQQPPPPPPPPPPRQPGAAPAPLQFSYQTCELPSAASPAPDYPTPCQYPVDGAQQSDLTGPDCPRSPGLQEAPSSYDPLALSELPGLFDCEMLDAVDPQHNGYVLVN
PTK6 (Brk), sequence (Q13882 whole entry, species assumed): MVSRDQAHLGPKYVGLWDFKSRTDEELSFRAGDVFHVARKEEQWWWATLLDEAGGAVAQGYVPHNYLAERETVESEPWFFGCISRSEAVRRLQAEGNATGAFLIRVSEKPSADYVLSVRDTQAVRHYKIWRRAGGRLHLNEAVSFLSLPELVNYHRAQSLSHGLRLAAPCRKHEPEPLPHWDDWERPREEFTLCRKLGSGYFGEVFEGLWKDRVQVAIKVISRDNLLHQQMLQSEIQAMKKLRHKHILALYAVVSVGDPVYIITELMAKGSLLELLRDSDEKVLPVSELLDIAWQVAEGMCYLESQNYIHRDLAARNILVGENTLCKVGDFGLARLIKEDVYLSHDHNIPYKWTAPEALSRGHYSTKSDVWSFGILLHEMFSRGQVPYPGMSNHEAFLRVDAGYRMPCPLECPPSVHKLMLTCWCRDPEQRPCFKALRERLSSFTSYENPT
FLT4 (VEGFR-3), sequence (P35916 25-1363, species assumed): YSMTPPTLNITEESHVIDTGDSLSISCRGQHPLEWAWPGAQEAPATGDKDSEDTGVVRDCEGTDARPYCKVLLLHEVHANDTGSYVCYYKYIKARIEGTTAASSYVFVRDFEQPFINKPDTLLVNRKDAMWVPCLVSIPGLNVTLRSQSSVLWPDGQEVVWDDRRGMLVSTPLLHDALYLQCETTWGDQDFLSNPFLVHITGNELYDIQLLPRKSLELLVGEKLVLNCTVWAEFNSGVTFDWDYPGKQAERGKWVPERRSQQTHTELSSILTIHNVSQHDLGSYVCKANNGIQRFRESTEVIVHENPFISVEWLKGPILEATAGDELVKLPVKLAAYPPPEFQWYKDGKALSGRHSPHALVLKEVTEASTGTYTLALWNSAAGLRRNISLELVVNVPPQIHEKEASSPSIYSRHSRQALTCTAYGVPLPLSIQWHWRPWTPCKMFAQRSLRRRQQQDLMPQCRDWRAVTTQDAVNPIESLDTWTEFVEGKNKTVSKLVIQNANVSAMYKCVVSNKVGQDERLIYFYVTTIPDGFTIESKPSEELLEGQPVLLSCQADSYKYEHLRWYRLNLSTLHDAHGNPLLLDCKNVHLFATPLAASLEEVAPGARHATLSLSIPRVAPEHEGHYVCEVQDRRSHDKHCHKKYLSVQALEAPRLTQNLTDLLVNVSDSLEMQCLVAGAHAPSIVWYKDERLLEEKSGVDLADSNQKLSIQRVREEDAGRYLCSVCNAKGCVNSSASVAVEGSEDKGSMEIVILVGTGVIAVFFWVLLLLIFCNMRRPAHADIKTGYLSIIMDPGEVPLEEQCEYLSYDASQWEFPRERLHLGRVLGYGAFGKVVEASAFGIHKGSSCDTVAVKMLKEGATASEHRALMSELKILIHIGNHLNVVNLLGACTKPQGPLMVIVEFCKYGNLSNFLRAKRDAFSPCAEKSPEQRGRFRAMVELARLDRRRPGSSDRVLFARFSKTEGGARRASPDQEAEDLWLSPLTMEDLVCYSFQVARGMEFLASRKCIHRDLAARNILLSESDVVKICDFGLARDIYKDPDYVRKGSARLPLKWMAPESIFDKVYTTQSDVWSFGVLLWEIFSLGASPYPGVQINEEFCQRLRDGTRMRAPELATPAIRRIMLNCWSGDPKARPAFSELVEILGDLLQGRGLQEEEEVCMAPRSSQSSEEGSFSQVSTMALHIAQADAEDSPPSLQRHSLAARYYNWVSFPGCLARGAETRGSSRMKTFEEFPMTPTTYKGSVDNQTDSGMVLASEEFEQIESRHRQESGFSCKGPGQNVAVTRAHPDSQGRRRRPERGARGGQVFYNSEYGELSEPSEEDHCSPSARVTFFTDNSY

Cl.NC(=O)c1c(OCc2c(F)cc(Br)cc2F)nsc1NC(=O)NCCCCN1CCCC1 [Compound-I, 3-[(4-bromo-2,6-difluorophenyl)methoxy]-5-[[[[4-(1-pyrrolidinyl)butyl]amino]carbonyl]amino]-4-isothiazolecarboxamide hydrochloride]
inhibition at 1 µM (FLT4 (VEGFR-3)): 95%
inhibition at 1 µM (EPHA-1): 81%
inhibition at 1 µM (SNF1LK2): 82%
inhibition at 1 µM (PTK6 (Brk)): 88%
concentration at 1 h ([1]; Dutch Belted, rabbit, central choroid, topical, 1 mg/mL (30 μL per eye, bilateral), Group 7: 1 mg/mL suspension, 50 μm particles, TRIS 0.60%, glycerol 2%, HEC 0.2%, HPMC 0.08%, Vitamin K3 1 μM, pH 6, QD for 4 days, 1 hr post dose on Day 5, read-out: Central Choroid concentration): 59 nM
concentration at 1 h ([1]; Dutch Belted, rabbit, central choroid, topical, 2 mg/mL (30 μL per eye, bilateral), Group 9: 2 mg/mL suspension, 50 μm particles, TRIS 0.60%, glycerol 2%, HEC 0.2%, HPMC 0.08%, Vitamin K3 1 μM, pH 6, QD for 4 days, 1 hr post dose on Day 5, read-out: Central Choroid concentration): 90.8 nM
concentration at 1 h ([1]; Dutch Belted, rabbit, central choroid, topical, 4 mg/mL (30 μL per eye, bilateral), Group 5: 4 mg/mL suspension (Control), 30 μm particles (Table 19-1) / Native (≈50) (Table 19-2), TRIS 0.60%, glycerol 2%, HEC 0.2%, HPMC 0.08%, Vitamin K3 1 μM, pH 6, QD for 4 days, 1 hr post dose on Day 5, read-out: Central Choroid concentration): 129 nM
concentration at 1 h ([1]; Dutch Belted, rabbit, central choroid, topical, 4 mg/mL, 30 μL per eye, pH 6, Group 1: 4 mg/mL Ophthalmic Solution, pH 6 (Control), QD for 4 days, 1 hr post dose on Day 5, read-out: Central Choroid concentration): 129 nM
concentration at 1 h ([1]; Dutch Belted, rabbit, central choroid, topical, 4 mg/mL, 30 μL per eye, pH 6, read-out: Central Choroid concentration): 151 nM
concentration at 1 h ([1]; Dutch Belted, rabbit, central choroid, topical, 30 μL per eye, Group 10: 2 mg/mL suspension, 50 μm particles, TRIS 0.60%, glycerol 2%, HEC 0.2%, HPMC 0.08%, Vitamin K3 1 μM, pH 6, BID for 4 days, 1 hr post dose on Day 5, read-out: Central Choroid concentration): 116 nM
concentration at 1 h ([1]; Dutch Belted, rabbit, central choroid, topical, 30 μL per eye, Group 11: 6 mg/mL suspension, 50 μm particles, TRIS 0.60%, glycerol 2%, HEC 0.2%, HPMC 0.08%, Vitamin K3 1 μM, pH 6, QD for 4 days, 1 hr post dose on Day 5, read-out: Central Choroid concentration): 148 nM
concentration at 1 h ([1]; Dutch Belted, rabbit, central choroid, topical, 30 μL per eye, Group 12: 10 mg/mL suspension, 50 μm particles, TRIS 0.60%, glycerol 2%, HEC 0.2%, HPMC 0.08%, Vitamin K3 1 μM, pH 6, QD for 4 days, 1 hr post dose on Day 5, read-out: Central Choroid concentration): 199 nM
concentration at 1 h ([1]; Dutch Belted, rabbit, central retina, topical, 1 mg/mL (30 μL per eye, bilateral), Group 7: 1 mg/mL suspension, 50 μm particles, TRIS 0.60%, glycerol 2%, HEC 0.2%, HPMC 0.08%, Vitamin K3 1 μM, pH 6, QD for 4 days, 1 hr post dose on Day 5, read-out: Central Retina concentration): 25.6 nM
concentration at 1 h ([1]; Dutch Belted, rabbit, central retina, topical, 2 mg/mL (30 μL per eye, bilateral), Group 9: 2 mg/mL suspension, 50 μm particles, TRIS 0.60%, glycerol 2%, HEC 0.2%, HPMC 0.08%, Vitamin K3 1 μM, pH 6, QD for 4 days, 1 hr post dose on Day 5, read-out: Central Retina concentration): 63.4 nM
concentration at 1 h ([1]; Dutch Belted, rabbit, central retina, topical, 4 mg/mL (30 μL per eye, bilateral), Group 5: 4 mg/mL suspension (Control), 30 μm particles (Table 19-1) / Native (≈50) (Table 19-2), TRIS 0.60%, glycerol 2%, HEC 0.2%, HPMC 0.08%, Vitamin K3 1 μM, pH 6, QD for 4 days, 1 hr post dose on Day 5, read-out: Central Retina concentration): 44.2 nM
concentration at 1 h ([1]; Dutch Belted, rabbit, central retina, topical, 4 mg/mL, 30 μL per eye, pH 6, Group 1: 4 mg/mL Ophthalmic Solution, pH 6 (Control), QD for 4 days, 1 hr post dose on Day 5, read-out: Central Retina concentration): 55.1 nM
concentration at 1 h ([1]; Dutch Belted, rabbit, central retina, topical, 30 μL per eye, Group 11: 6 mg/mL suspension, 50 μm particles, TRIS 0.60%, glycerol 2%, HEC 0.2%, HPMC 0.08%, Vitamin K3 1 μM, pH 6, QD for 4 days, 1 hr post dose on Day 5, read-out: Central Retina concentration): 91.5 nM
concentration at 1 h ([1]; Dutch Belted, rabbit, central retina, topical, 30 μL per eye, Group 12: 10 mg/mL suspension, 50 μm particles, TRIS 0.60%, glycerol 2%, HEC 0.2%, HPMC 0.08%, Vitamin K3 1 μM, pH 6, QD for 4 days, 1 hr post dose on Day 5, read-out: Central Retina concentration): 114 nM
concentration at 1 h ([1]; Dutch Belted, rabbit, cornea, topical, 1 mg/mL (30 μL per eye, bilateral), Group 7: 1 mg/mL suspension, 50 μm particles, TRIS 0.60%, glycerol 2%, HEC 0.2%, HPMC 0.08%, Vitamin K3 1 μM, pH 6, QD for 4 days, 1 hr post dose on Day 5, read-out: Cornea concentration): 1240 nM
concentration at 1 h ([1]; Dutch Belted, rabbit, cornea, topical, 2 mg/mL (30 μL per eye, bilateral), Group 9: 2 mg/mL suspension, 50 μm particles, TRIS 0.60%, glycerol 2%, HEC 0.2%, HPMC 0.08%, Vitamin K3 1 μM, pH 6, QD for 4 days, 1 hr post dose on Day 5, read-out: Cornea concentration): 2280 nM
concentration at 1 h ([1]; Dutch Belted, rabbit, cornea, topical, 4 mg/mL (30 μL per eye, bilateral), Group 5: 4 mg/mL suspension (Control), 30 μm particles (Table 19-1) / Native (≈50) (Table 19-2), TRIS 0.60%, glycerol 2%, HEC 0.2%, HPMC 0.08%, Vitamin K3 1 μM, pH 6, QD for 4 days, 1 hr post dose on Day 5, read-out: Cornea concentration): 4470 nM
concentration at 1 h ([1]; Dutch Belted, rabbit, cornea, topical, 4 mg/mL, 30 μL per eye, pH 6, Group 1: 4 mg/mL Ophthalmic Solution, pH 6 (Control), QD for 4 days, 1 hr post dose on Day 5, read-out: Cornea concentration): 14300 nM
concentration at 1 h ([1]; Dutch Belted, rabbit, cornea, topical, 30 μL per eye, Group 10: 2 mg/mL suspension, 50 μm particles, TRIS 0.60%, glycerol 2%, HEC 0.2%, HPMC 0.08%, Vitamin K3 1 μM, pH 6, BID for 4 days, 1 hr post dose on Day 5, read-out: Cornea concentration): 5000 nM
concentration at 1 h ([1]; Dutch Belted, rabbit, cornea, topical, 30 μL per eye, Group 11: 6 mg/mL suspension, 50 μm particles, TRIS 0.60%, glycerol 2%, HEC 0.2%, HPMC 0.08%, Vitamin K3 1 μM, pH 6, QD for 4 days, 1 hr post dose on Day 5, read-out: Cornea concentration): 7070 nM
concentration at 1 h ([1]; Dutch Belted, rabbit, cornea, topical, 30 μL per eye, Group 12: 10 mg/mL suspension, 50 μm particles, TRIS 0.60%, glycerol 2%, HEC 0.2%, HPMC 0.08%, Vitamin K3 1 μM, pH 6, QD for 4 days, 1 hr post dose on Day 5, read-out: Cornea concentration): 24700 nM
concentration at 1 h ([1]; Dutch Belted, rabbit, plasma, topical, 1 mg/mL (30 μL per eye, bilateral), Group 7: 1 mg/mL suspension, 50 μm particles, TRIS 0.60%, glycerol 2%, HEC 0.2%, HPMC 0.08%, Vitamin K3 1 μM, pH 6, QD for 4 days, 1 hr post dose on Day 5, read-out: Plasma concentration): 2.18 nM
concentration at 1 h ([1]; Dutch Belted, rabbit, plasma, topical, 2 mg/mL (30 μL per eye, bilateral), Group 9: 2 mg/mL suspension, 50 μm particles, TRIS 0.60%, glycerol 2%, HEC 0.2%, HPMC 0.08%, Vitamin K3 1 μM, pH 6, QD for 4 days, 1 hr post dose on Day 5, read-out: Plasma concentration): 4.05 nM
concentration at 1 h ([1]; Dutch Belted, rabbit, plasma, topical, 4 mg/mL (30 μL per eye, bilateral), Group 5: 4 mg/mL suspension (Control), 30 μm particles (Table 19-1) / Native (≈50) (Table 19-2), TRIS 0.60%, glycerol 2%, HEC 0.2%, HPMC 0.08%, Vitamin K3 1 μM, pH 6, QD for 4 days, 1 hr post dose on Day 5, read-out: Plasma concentration): 6.26 nM
concentration at 1 h ([1]; Dutch Belted, rabbit, plasma, topical, 4 mg/mL, 30 μL per eye, pH 6, Group 1: 4 mg/mL Ophthalmic Solution, pH 6 (Control), QD for 4 days, 1 hr post dose on Day 5, read-out: Plasma concentration): 4.28 nM
concentration at 1 h ([1]; Dutch Belted, rabbit, plasma, topical, 30 μL per eye, Group 11: 6 mg/mL suspension, 50 μm particles, TRIS 0.60%, glycerol 2%, HEC 0.2%, HPMC 0.08%, Vitamin K3 1 μM, pH 6, QD for 4 days, 1 hr post dose on Day 5, read-out: Plasma concentration): 7.72 nM
concentration at 1 h ([1]; Dutch Belted, rabbit, plasma, topical, 30 μL per eye, Group 12: 10 mg/mL suspension, 50 μm particles, TRIS 0.60%, glycerol 2%, HEC 0.2%, HPMC 0.08%, Vitamin K3 1 μM, pH 6, QD for 4 days, 1 hr post dose on Day 5, read-out: Plasma concentration): 8.61 nM
Plasma concentration ([1]; Group 2: 4 mg/mL suspension, 30 μm particles, TRIS 0.60%, glycerol 2%, HEC 0.2%, HPMC 0.08%, Vitamin K3 1 μM, pH 6, QD for 4 days, 1 hr post dose on Day 5): 4.64 nM
concentration at 1 h ([1]; Group 2: 4 mg/mL suspension, 30 μm particles, TRIS 0.60%, glycerol 2%, HEC 0.2%, HPMC 0.08%, Vitamin K3 1 μM, pH 6, QD for 4 days, 1 hr post dose on Day 5, read-out: Central Choroid concentration): 135 nM
